Assay results reported in patent US4153688A, “Trifluoromethylated oligopeptides” (Delalande S.A., priority 1977, dated 1979).
Counter-ions that a name gives are not always drawn. Like-named read-outs stand apart in the source and are kept apart here. Square brackets hold non-standard residues; d marks the D form. Peptide text beside a SMILES is read from it. * marks the point of attachment. pNA = O=[N+]([O-])c1ccc(N*)cc1; 4Abz = Nc1ccc(C(=O)O)cc1; Tfa = O=C(C(F)(F)F)*; NHPh = c1ccc(N*)cc1

Experiments:
[1] = target: T1, porcine pancreatic elastase (Sus scrofa, UniProt P00772); test: Inhibition constant KI (Dixon method) on pancreatic elastase, hydrolysis of succinyl-tri-L-alanine-paranitroanilide; assay type: biochemical; conditions: 25° C., TRIS 0.2 M buffer, pH 8; absence of any organic solvent; read-out: K T^ (a) pancreatic
Description: (§1) This latter was purified according to the Travis method (Baugh, R. J. and Travis, J. (1976), Biochemistry, 15, 4, 836). The method of study used is the conventional method of Dixon (Dixon, M., (1953), Biochemical Journal, 55, 1970) for measuring the inhibition constants KI of the compounds of the invention with regard to the hydrolysis reactions of the succinyl-tri-L-alanine-paranitroanilide catalysed by the two above elastases (Bieth J., Spiess B. and Wermuth C. G. (1974) Biochemical Medicine, 11, 350). In certain cases (leucocytal elastase) the inhibitory power of the compounds studied was measured by means of the I50 concentration of these compounds inducing 50% inhibition of the hydrolysis of the succinyl-tri-alanine-paranitroanilide at a 10^-3 M concentration catalysed by the enzyme. […] All the measurements were made at 25° C. in a 0.2 Molar buffer solution of tri-hydroxymethyl-aminomethane at pH 8.
(§2) Table E below lists the results obtained for the compounds of formula (I) as well as the reference compounds (A), acetyl-L-prolyl-L-alanyl-L-prolyl-L-alaninal, for the pancreatic elastase (Thompson, R. C., Biochemistry (1973), 17, 1, 47) and (B), oleic acid, for the leucocytal elastase (Ashe, B. M. and Zimmerman, M. (1977), Biochem. Biophys. Res. Comm., 75, 194).

leucocytal elastase [2] = target: T2, leucocytal elastase (Homo sapiens, UniProt P08246); test: I50 on leucocytal elastase, hydrolysis of succinyl-tri-alanine-paranitroanilide at 10^-3 M; assay type: biochemical; conditions: 25° C., TRIS 0.2 M buffer, pH 8; substrate 10^-3 M; in the presence of 50 % dimethylformamide (footnote); read-out: T 50^ (b) leucocytal
T2 construct: This latter was purified according to the Travis method; from tissue
T2 sequence (P08246 30-267): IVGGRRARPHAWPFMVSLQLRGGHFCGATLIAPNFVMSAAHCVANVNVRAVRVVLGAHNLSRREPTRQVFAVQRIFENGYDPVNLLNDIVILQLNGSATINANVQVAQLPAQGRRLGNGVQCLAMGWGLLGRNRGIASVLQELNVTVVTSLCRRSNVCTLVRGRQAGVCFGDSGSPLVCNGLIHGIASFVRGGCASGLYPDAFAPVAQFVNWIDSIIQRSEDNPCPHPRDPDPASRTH
Description: as §1

[3] = target: T1, porcine pancreatic elastase; conditions: reference compound, Thompson, Biochemistry (1973); read-out: K T^ (a) pancreatic; cited from earlier work
leucocytal elastase [4] = target: T2, leucocytal elastase; conditions: reference compound, Ashe and Zimmerman (1977); read-out: K T^ (a) leucocytal; cited from earlier work
mice = test: Intravenous toxicity on mice; assay type: in vivo; conditions: intravenously, 20, 40 and 80 mg/kg, solution in physiological serum containing 10% DMF
Experimental: Furthermore, the toxicity of the compounds of the invention were studied intravenously on mice. More exactly, these compounds were tested in the form of a solution in physiological serum containing 10% DMF.
It is to be noted that it was not possible to use doses higher than those indicated above, because of the solubility limit of compound 3.

leucocytal elastase [5] = target: T2, leucocytal elastase; test: Inhibition constant KI (Dixon method) on leucocytal elastase, hydrolysis of succinyl-tri-L-alanine-paranitroanilide; assay type: biochemical; conditions: 25° C., TRIS 0.2 M buffer, pH 8; absence of any organic solvent; read-out: K T^ (a) leucocytal
Description: as §1, §2

T1 sequence (P00772 27-266): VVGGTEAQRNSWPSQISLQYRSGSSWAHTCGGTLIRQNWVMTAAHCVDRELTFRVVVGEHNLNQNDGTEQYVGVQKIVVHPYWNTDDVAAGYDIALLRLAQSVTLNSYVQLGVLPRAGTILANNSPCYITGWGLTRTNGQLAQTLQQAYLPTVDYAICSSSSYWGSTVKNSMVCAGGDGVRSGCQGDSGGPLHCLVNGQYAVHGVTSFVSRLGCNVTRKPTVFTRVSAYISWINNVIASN

Row | Structure (SMILES) | Ki [1] [nM] | IC50 (leucocytal elastase [2]) [nM] | Ki [3] [nM] | Ki (leucocytal elastase [4]) [nM] | mortality (mice) | Ki (leucocytal elastase [5]) [nM]
1 | CC(NC(=O)C(F)(F)F)C(=O)NC(C(=O)Nc1ccccc1)C(F)(F)F (mixture of isomers) [compound 17] | 270 | 400000 | – | – | – | –
2 | CC(=O)N1CCC[C@H]1C(=O)N[C@@H](C)C(=O)N1CCC[C@H]1C(=O)N[C@@H](C)C=O [A, acetyl-L-prolyl-L-alanyl-L-prolyl-L-alaninal] (Ac-PAPA-aldehyde) | – | – | 800 | – | – | –
3 | CCCCCCCC/C=C\CCCCCCCC(=O)O [B, oleic acid] | – | – | – | 9000 | – | –
4 | C[C@H](NC(=O)[C@H](C)NC(=O)C(F)(F)F)C(=O)Nc1ccc([N+](=O)[O-])cc1 [Code number 3, N-trifluoroacetyl-L-alanyl-L-alanyl-p-nitroanilide] (Tfa-Ala-Ala-pNA) | 120 | 78000 | – | – | no case of mortality was observed | –
5 | C[C@H](NC(=O)[C@H](C)NC(=O)C(F)(F)F)C(=O)Nc1ccccc1 [compound 1] (Tfa-Ala-Ala-NHPh) | 250 | 250000 | – | – | – | –
6 | C[C@H](NC(=O)[C@H](C)NC(=O)C(F)(F)F)C(=O)Nc1ccc(Cl)cc1 [compound 2] | 110 | 100000 | – | – | – | –
7 | C[C@H](NC(=O)[C@H](C)NC(=O)C(F)(F)F)C(=O)Nc1cccc([N+](=O)[O-])c1 [compound 4] | 380 | 150000 | – | – | – | –
8 | C[C@H](NC(=O)[C@H](C)NC(=O)C(F)(F)F)C(=O)Nc1ccc(C(F)(F)F)cc1 [compound 5] | 90 | 56000 | – | – | – | –
9 | C[C@H](NC(=O)[C@H](C)NC(=O)C(F)(F)F)C(=O)Nc1cccc(C(F)(F)F)c1 [compound 6] | 800 | 120000 | – | – | – | –
10 | COc1ccc(NC(=O)[C@H](C)NC(=O)[C@H](C)NC(=O)C(F)(F)F)cc1 [compound 7] | 290 | 30000 | – | – | – | –
11 | CC(C)c1ccc(NC(=O)[C@H](C)NC(=O)[C@H](C)NC(=O)C(F)(F)F)cc1 [compound 8] | 550 | 12000 | – | – | – | –
12 | C[C@H](NC(=O)[C@H](C)NC(=O)C(F)(F)F)C(=O)Nc1ccc(C#N)cc1 [compound 9] | 110 | 100000 | – | – | – | –
13 | C[C@H](NC(=O)[C@H](C)NC(=O)C(F)(F)F)C(=O)Nc1ccc(C(=O)O)cc1 [compound 10] (Tfa-Ala-Ala-[4Abz]-OH) | 200 | 470000 | – | – | – | –
14 | C[C@H](NC(=O)[C@H](CCCCN)NC(=O)C(F)(F)F)C(=O)Nc1ccccc1 [compound 11] (Tfa-Lys-Ala-NHPh) | 40 | 150000 | – | – | – | 44000
15 | C[C@H](NC(=O)[C@H](CCCCN)NC(=O)C(F)(F)F)C(=O)Nc1ccc(C(F)(F)F)cc1 [compound 12] | 25 | 35000 | – | – | – | 3000
16 | Cc1ccc(NC(=O)[C@H](C)NC(=O)[C@H](CCCCN)NC(=O)C(F)(F)F)cc1 [compound 13] | 30 | 50000 | – | – | – | 14000
17 | CC(C)c1ccc(NC(=O)[C@H](C)NC(=O)[C@H](CCCCN)NC(=O)C(F)(F)F)cc1 [compound 14] | 50 | 5700 | – | – | – | 700
18 | CC(=O)c1ccc(NC(=O)[C@H](C)NC(=O)[C@H](CCCCN)NC(=O)C(F)(F)F)cc1 [compound 16] | 32 | 9000 | – | – | – | 2500
19 | C[C@H](NC(=O)C(F)(F)F)C(=O)N[C@@H](CCCCN)C(=O)Nc1ccc(C(F)(F)F)cc1 [compound 19] | 400 | 150000 | – | – | – | –
